In US8501737B2, “Piperazinyl-, piperidinyl- and morpholinyl-derivatives as novel inhibitors of histone deacetylase” (Janssen Pharmaceutica N.V., priority 2002, dated 2013):
Converted amounts (≈) assume the structure as drawn. Like-named read-outs stand apart in the source and are kept apart here.

Columns and labels:
[1] = target: histone deacetylase (HeLa nuclear extracts); assay: In vitro assay for inhibition of histone deacetylase (HeLa nuclear extracts, radiolabeled histone H4 peptide substrate); type: biochemical; conditions: HeLa nuclear extracts 60 μg/ml, 30 min, pH 7.4
Experimental: The in vitro assay for inhibition of histone deacetylase (see example C.1) measures the inhibition of HDAC enzymatic activity obtained with the compounds of formula (I).
HeLa nuclear extracts (supplier: Biomol) were incubated at 60 μg/ml with 2×10^−8 M of radiolabeled peptide substrate. As a substrate for measuring HDAC activity a synthetic peptide, i.e. the amino acids 14-21 of histone H4, was used. The substrate is biotinylated at the NH2-terminal part with a 6-aminohexanoic acid spacer, and is protected at the COOH-terminal part by an amide group and specifically [^3H]-acetylated at lysine 16. The substrate, biotin-(6-aminohexanoic)Gly-Ala-([^3H]-acetyl-Lys-Arg-His-Arg-Lys-Val-NH2), was added in a buffer containing 25 mM Hepes, 1 M sucrose, 0.11 mg/ml BSA and 0.01% Triton X-100 at pH 7.4. After 30 min the deacetylation reaction was terminated by the addition of HCl and acetic acid. (final concentration 0.035 mM and 3.8 mM respectively). After stopping the reaction, the free ^3H-acetate was extracted with ethylacetate. After mixing and centrifugation, the radioactivity in an aliquot of the upper (organic) phase was counted in a β-counter.
For each experiment, controls (containing HeLa nuclear extract and DMSO without compound), a blank incubation (containing DMSO but no HeLa nuclear extract or compound) and samples (containing compound dissolved in DMSO and HeLa nuclear extract) were run in parallel. In first instance, compounds were tested at a concentration of 10^−5M. […] In each test the blank value was subtracted from both the control and the sample values. The control sample represented 100% of substrate deactylation. For each sample the radioactivity was expressed as a percentage of the mean value of the controls. […] Herein the effects of test compounds are expressed as pIC50 (the negative log value of the IC50-value).

[2] = tested on: human A2780 ovarian carcinoma cells; assay: Antiproliferative activity on A2780 cells (MTT-based assay); type: cell-based; conditions: four days of incubation; for IC50: Homo sapiens, A2780, 96 h, read-out: Cellular activity pIC50 (converted)
Experimental: Cellular activity of the compounds of formula (I) was determined on A2780 tumour cells using a […] assay for cell toxicity or survival (Mosmann Tim, Journal of Immunological Methods 65: 55-63, 1983)(see example C.2).
All compounds tested were dissolved in DMSO and further dilutions were made in culture medium. Final DMSO concentrations never exceeded 0.1% (v/v) in cell proliferation assays, Controls contained A2780 cells and DMSO without compound and blanks contained DMSO but no cells. MTT was dissolved at 5 mg/ml in PBS. A glycine buffer comprised of 0.1 M glycine and 0.1 M NaCl buffered to pH 10.5 with NaOH (1 N) was prepared (all reagents were from Merck).
The human A2780 ovarian carcinoma cells (a kind gift from Dr. T. C. Hamilton [Fox Chase Cancer Centre, Pennsylvania, USA]) were cultured in RPMI 1640 medium supplemented with 2 mM L-glutamine, 50 μg/ml gentamicin and 10% fetal calf serum. Cells were routinely kept as monolayer cultures at 37° C. in a humidified 5% CO2 atmosphere. Cells were passaged once a week using a trypsin/EDTA solution at a split ratio of 1:40. All media and supplements were obtained from Life Technologies. Cells were free of mycoplasma contamination as determined using the Gen-Probe Mycoplasma Tissue Culture kit (supplier: BioMérieux).
Cells were seeded in NUNC™ 96-well culture plates (Supplier: Life Technologies) and allowed to adhere to the plastic overnight. Densities used for plating were 1500 cells per well in a total volume of 200 μl medium. After cell adhesion to the plates, medium was changed and drugs and/or solvents were added to a final volume of 200 μl. Following four days of incubation, medium was replaced by 200 μl fresh medium and cell density and viability was assessed using an MTT-based assay. To each well, 25 μl MTT solution was added and the cells were further incubated for 2 hours at 37° C. The medium was then carefully aspirated and the blue MTT-formazan product was solubilized by addition of 25 μl glycine buffer followed by 100 μl of DMSO. […] Within an experiment, the results for each experimental condition are the mean of 3 replicate wells. For initial screening purposes, compounds were tested at a single fixed concentration of 10^−6 M. For active compounds, the experiments were repeated to establish full concentration-response curves. For each experiment, controls (containing no drug) and a blank incubation (containing no cells or drugs) were run in parallel. The blank value was subtracted from all control and sample values. For each sample, the mean value for cell growth (in absorbance units) was expressed as a percentage of the mean value for cell growth of the control. […] Herein the effects of test compounds are expressed as pIC50 (the negative log value of the IC50-value).

[3] = not given; remark: listed apart in the source
[4] = Kinetic solubility in aqueous media (nephelometer turbidity); type: physicochemical; conditions: aqueous buffer, kinetic from dmso stock; phosphate citrate buffer pH 7.4, dilution from 5 mM DMSO stock; read-out: Solubility Score
Experimental: Kinetic solubility in aqueous media measures the ability of a compound to stay in aqueous solution upon dilution (see example C.3).
DMSO-stock solutions are diluted with a single aqueous buffer solvent in 3 consecutive steps. For every dilution turbidity is measured with a nephelometer.
In the first dilution step, 10 μl of a concentrated stock-solution of the active compound, solubilized in DMSO (5 mM), was added to 100 μl phosphate citrate buffer pH 7.4 and mixed. In the second dilution step, an aliquot (20 μl) of the first dilution step was further dispensed in 100 μl phosphate citrate buffer pH 7.4 and mixed. Finally, in the third dilution step, a sample (20 μl) of the second dilution step was further diluted in 100 μl phosphate citrate buffer pH 7.4 and mixed. All dilutions were performed in 96-well plates. Immediately after the last dilution step the turbidity of the three consecutive dilution steps were measured with a nephelometer. Dilution was done in triplicate for each compound to exclude occasional errors. Based on the turbidity measurements a ranking is performed into 3 classes. Compounds with high solubility obtained a score of 3 and for this compounds the first dilution is clear. Compounds with medium solubility obtained a score of 2. For these compounds the first dilution is unclear and the second dilution is clear. […] The solubility of 11 compounds was measured.

Row | Structure (SMILES) | % metabolism (after 15 min incubation with microsomes (1 mg/ml), compound 5 μM, 37 degrees Celsius) | Enzyme activity pIC50 [1] | Cellular activity pIC50 [2] | melting point [3] | IC50 [2] | solubility [4] | % metabolism (human, 15 min, 5 μM)
1 | CCCO [propanol] | 25% | – | – | – | – | – | –
2 | O=C(NO)c1cnc(N2CCO[C@H](CNS(=O)(=O)c3ccc(-c4ccccc4)cc3)C2)nc1 [Compound 1] | – | 7.723 | 6.232 | 164 °C | – | – | –
3 | O=C(NO)c1cnc(N2CCCC(CNS(=O)(=O)c3ccc4ccccc4c3)C2)nc1 (centres unmarked) [Compound 10] | – | 7.65 | – | 210 °C | 1080 nM | > 454 µM | –
4 | O=C(NO)c1cnc(N2CCOC(CNC(=O)c3ccc4ccccc4c3)C2)nc1 (centres unmarked) [Compound 9] | – | 7.609 | – | 246 °C | > 10000 nM | > 454 µM | –
5 | O=C(NO)c1cnc(N2CCCC(NS(=O)(=O)c3ccc4ccccc4c3)C2)nc1 (centres unmarked) [Compound 14] | – | – | – | – | 243 nM | – | –
6 | O=C(NO)c1ccc(N2CCOC(CNS(=O)(=O)c3ccc4ccccc4c3)C2)nc1 (centres unmarked) [Compound 7] | – | 7.323 | – | 157 °C | 2040 nM | > 454 µM | –
7 | O=C(NO)c1cnc(N2CCNC(CNS(=O)(=O)c3ccc4ccccc4c3)C2)nc1 (centres unmarked) [Compound 2] | – | 8.059 | – | 243 °C | 2040 nM | < 75.8 µM | –
8 | O=C(NO)c1cnc(N2CCN(Cc3ccccc3)C(CNS(=O)(=O)c3ccc4ccccc4c3)C2)nc1 (centres unmarked) [Compound 3] | – | 7.647 | – | 135 °C | 2400 nM | < 75.8 µM | –
9 | O=C(NO)c1cnc(N2CCOC(CNS(=O)(=O)c3ccc4ccccc4c3)C2)nc1 (centres unmarked) [Compound 6] | – | 7.421 | – | 179 °C | 413 nM | > 454 µM | –
10 | O=C(NO)c1cnc(N2CC[C@H](O)[C@H](CNS(=O)(=O)c3ccc4ccccc4c3)C2)nc1 [Compound 11] | – | 7.553 | – | 176 °C | > 10000 nM | > 454 µM | –
11 | COc1cc(N)c(Cl)cc1C(=O)NC1CCN(CCCOc2ccc(F)cc2)CC1OC (centres unmarked) [Cisapride] | – | – | – | – | – | – | 45%
12 | O=C(NO)c1ccc(N2CCOC(CNS(=O)(=O)c3ccc(-c4ccccc4)cc3)C2)nc1 (centres unmarked) [Compound 5] | – | 7.549 | – | 210 °C | 2050 nM | – | –
13 | CN1CCN(c2ncc(C(=O)NO)cn2)CC1CNS(=O)(=O)c1ccc2ccccc2c1 (centres unmarked) [Compound 13] | – | 7.361 | – | – | 1690 nM | – | –
14 | O=C(NO)c1cnc(N2CCOC(CNS(=O)(=O)c3ccc(-c4ccccc4)cc3)C2)nc1 (centres unmarked) [Compound 4] | – | 8.097 | – | 163 °C | 565 nM | < 75.8 µM | –
15 | O=C(NO)c1cnc(N2CCO[C@H](CNS(=O)(=O)c3ccc(-c4ccccc4)cc3)C2)nc1 [Compound 12] | – | 7.528 | – | – | 977 nM | 75.8 to 454 µM (≈ 35.6 to 213 µg/mL) | –
16 | O=C(NO)c1cnc(N2CCOC(CNC(=O)c3ccc(-c4ccccc4)cc3)C2)nc1 (centres unmarked) [Compound 8] | – | 7.487 | – | 290 °C | 36.5 nM | > 454 µM | –
